Measured values: US20050037067A1, “3,7-Diazabicyclo [3.3.1]formulations as anti-arrhythmic compounds” (priority 2001, published 2005)
Structures can show the parent of a compound that is named as a salt.

Test: Solubility of the salt in vehicle compared to water alone
Format: physicochemical
Protocol: Salt was dissolved in the 40/60 (w/w %) hydroxypropyl-β-cyclodextrin/water vehicle.
The solubility of the salt was almost 40 times higher in this vehicle compared to water alone.
Salt was dissolved in PEG 400, ethanol and the surfactant Solutol™ (BASF; comprises polyethylene glycol esters of 12-OH-stearic acid). Water was added to the final volume. The solubility of the benzenesulphonate salt was approximately 4 times higher in this vehicle than it is in water alone.

With `CC(C)(C)C(=O)CN1CC2CN(CCCNc3ccc(C#N)cc3)CC(C1)O2` [Compound A, benzenesulphonic acid salt, 4-({3-[7-(3,3-dimethyl-2-oxobutyl)-9-oxa-3,7-diazabicyclo[3.3.1]non-3-yl]propyl}amino)benzonitrile] as the compound, how does the “solubility in vehicle compared to water alone” value (vehicle Polyethyleneglycol 400/Ethanol/Solutol/Water (40/10/5/45 w/w %)) read?
Its value is “approximately 4 times”.

What about the “solubility in vehicle compared to water alone” value (vehicle hydroxypropyl-β-cyclodextrin/water (40/60 w/w %)) of the same compound?
Its value is roughly 40 times.
